47 compounds from PubChem BioAssay AID588374 (Southern Research Specialized Biocontainment Screening …, 2011) can be followed below.

Several values for one entry are separate records, joined by “and”; a condition that tells them apart may be missing. Equal values may be shown once. Inconclusive results are not listed. Activity calls are given as the source filed them.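 The calls were made as follows: active = viability below 70% at one or more tested concentrations in every replicate; inactive = viability above 70% at all doses, or replicates disagree.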

One experiment has as its system Vero E6 viability, CellTiter-Glo luminescence, 72 h. As to the kind of experiment: host cell viability loss, Vero E6 – synthesized analogs, extended characterization 1, cytotoxicity control for West Nile virus antiviral project, SAR follow-up (AID 588374).
Settings: not given
What is called CC50 is the concentration that lowers cell viability or growth by half. Turning to `Cc1cnc(NC(=O)CSc2nc3ccccc3c(=O)n2-c2ccc(Cl)c(Cl)c2)s1`, the CC50 was 28.8 µM.
`O=C(CSc1nc2ccccc2c(=O)n1-c1ccccc1)Nc1ccc2c(c1)OCO2`: the CC50 was 57.3 µM.
Same read-out and setting: with `O=C(CSc1nc2ccccc2c(=O)n1-c1cc(F)c(F)c(F)c1)NC1CCc2ccccc21` (configuration not stated) the figure was 36 µM; with `O=C(CCCCSc1nc2ccccc2c(=O)n1-c1ccc(F)c(Cl)c1)Nc1ccc2c(c1)CCC2`, 93.9 µM; with `O=C(CSc1nc2ccccc2c(=O)n1-c1ccccc1)Nc1nc2ccc([N+](=O)[O-])cc2s1`, 40.5 µM.
On to `O=C(CSc1nc2ccccc2c(=O)n1-c1cc(Cl)cc(Cl)c1)Nc1cccc2c1CCC2`, for which the CC50 was 17.5 µM.
Regarding `O=C(CSc1nc2ccccc2c(=O)n1-c1ccc(Cl)c(Cl)c1)Nc1nccs1`, the CC50 was 14.9 µM.
Turning to `O=C(CSc1nc2ccccc2c(=O)n1-c1ccc(Cl)c(Cl)c1)Nc1ncc([N+](=O)[O-])s1`, the CC50 was 21.7 µM.
Same read-out and setting: with `O=C(CSc1nc2ccccc2c(=O)n1-c1ccccc1)Nc1nc2cc(Cl)ccc2o1` the figure was 31.7 µM.
With `O=C(CSc1nc2ccccc2c(=O)n1-c1ccc(Cl)c(Cl)c1)Nc1nc2cc(Cl)ccc2o1`, the CC50 was 18.8 µM.
On the same count and under the same terms, with `O=C(CSc1nc2ccccc2c(=O)n1-c1cc(Cl)cc(Cl)c1)Nc1nccs1` the figure was 18 µM; with `O=C(CSc1nc2ccccc2c(=O)n1-c1ccccc1)Nc1cccc2c1CCC2`, 37.3 µM; with `O=C(CSc1nc2ccccc2c(=O)n1-c1cc(F)c(F)c(F)c1)Nc1ccc2c(c1)OCO2`, 32.8 µM.
Turning to `Cc1nc2cc(NC(=O)CSc3nc4ccccc4c(=O)n3-c3ccc(Cl)c(Cl)c3)ccc2s1`, the CC50 was 18 µM.
The same measure, in the same setting: with `O=C(CCSc1nc2cccc(F)c2c(=O)n1-c1ccccc1)Nc1ccc2c(c1)CCC2` the figure was 52.6 µM; with `Cn1c(NC(=O)CSc2nc3ccccc3c(=O)n2-c2ccccc2)nc2ccccc21`, 16.4 µM; with `O=C(CCCCSc1nc2ccccc2c(=O)n1-c1ccccc1)Nc1ccc2c(c1)CCC2`, 50 µM.

System in the next experiment: not listed separately
The experiment is described as above. The note with it: Vero E6 viability, CellTiter-Glo luminescence, 72 h; at 50 µM (top of the series). Background: Cellular ATP, detected with luciferase, serves as a proxy for viable cell number.
Broadly, the viability is a per cent measure of how many cells are alive, often set against a control. Consider `O=C(CSc1nc2ccccc2c(=O)n1-c1ccc(Cl)c(Cl)c1)NC1CCc2ccccc21` (configuration not stated), for which the viability is 73.8% (inactive).
Still for that read-out and setting: with `O=C(CSc1nc2ccccc2c(=O)n1-c1ccc(F)c(F)c1)Nc1nccs1` the figure was 74.1% (inactive); with `Cn1c(NC(=O)CSc2nc3ccccc3c(=O)n2-c2ccc(Cl)c(Cl)c2)nc2ccccc21`, 74.2% (inactive).
The same measure, in the same setting: with `O=C(CSc1nc2ccccc2c(=O)n1-c1cc(F)c(F)c(F)c1)Nc1ccc2c(c1)CCC2` the figure was 76.3% (inactive).
Still for that read-out and setting: with `O=C(CSc1nc2ccccc2c(=O)n1-c1ccc(Cl)c(Cl)c1)Nc1cccc2c1CCC2` the figure was 76.2% (inactive).
In the case of `O=C(CSc1nc2ccccc2c(=O)n1-c1ccccc1)Nc1nc(-c2ccccc2)cs1`, the viability was 77.7% (inactive).
Still for that read-out and setting: with `O=C(CSc1nc2cccc(F)c2c(=O)n1-c1ccccc1)Nc1ccc2ncsc2c1` the figure was 86.2% (inactive).

The same experiment, now with this note: Vero E6 viability, CellTiter-Glo luminescence, 72 h; at 100 µM (top of the series).
Regarding `O=C(CSc1nc2ccccc2c(=O)n1-c1ccc(F)c(F)c1)NC1CCCc2ccccc21` (configuration not stated), the viability is 76.2% (inactive).
With `O=C(CSc1nc2ccccc2c(=O)n1-c1ccc(Cl)c(Cl)c1)Nc1ccc2c(c1)CCC2`, the viability is 70.3% (inactive).
Consider `O=C(CSc1nc2ccccc2c(=O)n1-c1ccccc1)Nc1ccc2c(c1)CCC2`, for which the viability was 76.9% (inactive) and 77% (inactive).
Still for that read-out and setting: with `O=C(CCCSc1nc2cccc(F)c2c(=O)n1-c1ccc(Cl)c(F)c1)Nc1ccc2c(c1)CCC2` the figure was 82.9% (inactive); with `O=C(COc1nc2ccccc2c(=O)n1-c1ccccc1)Nc1ccc2c(c1)CCC2`, 71.6% (inactive).
`O=C(CCCCSc1nc2cccc(F)c2c(=O)n1-c1ccc(Cl)c(F)c1)Nc1ccc2c(c1)CCC2`: the viability is 81.9% (inactive).
In the case of `O=C(CSc1nc2ccccc2c(=O)n1-c1ccccc1)NC1Cc2ccccc2C1`, the viability is 75.3% (inactive).
Still for that read-out and setting: with `O=C(CSc1nc2ccccc2c(=O)n1-c1ccccc1)Nc1nccs1` the figure was 96.3% (inactive); with `O=C(CCSc1nc2ccccc2c(=O)n1-c1ccc(F)c(Cl)c1)Nc1ccc2c(c1)CCC2`, 77.6% (inactive).
The same measure, in the same setting: with `O=C(CSc1nc2cccc(F)c2c(=O)n1-c1ccccc1)Nc1ccc2c(c1)OCO2` the figure was 76.3% (inactive); with `O=C(CCCSc1nc2ccccc2c(=O)n1-c1ccc(Cl)c(Cl)c1)Nc1ccc2c(c1)CCC2`, 80.6% (inactive); with `O=C(CSc1nc2ccccc2c(=O)n1-c1ccc(Cl)c(Cl)c1)N1CCCCCC1`, 74.5% (inactive).
Take `O=C(CSc1nc2ccccc2c(=O)n1-c1ccccc1)NC1CCc2ccccc21` (configuration not stated): the viability was 75.5% (inactive).
`O=C(CSc1nc2ccccc2c(=O)n1-c1cc(Cl)cc(Cl)c1)Nc1cccc2ccccc12`: the viability was 83.8% (inactive).
For `O=C(CSc1nc2ccccc2c(=O)n1-c1ccc(Cl)c(Cl)c1)Nc1ccc2scnc2c1`, the viability was 75.5% (inactive).
On the same count and under the same terms, with `O=C(CCCSc1nc2ccccc2c(=O)n1-c1ccccc1)Nc1ccc2c(c1)CCC2` the figure was 85.5% (inactive); with `O=C(CSc1nc2ccccc2c(=O)n1-c1ccccc1)Nc1ccc2ncsc2c1`, 88.3% (inactive).
`O=C(CSc1nc2ccccc2c(=O)n1-c1ccc(Cl)c(Cl)c1)Nc1ccc2c(c1)OCO2`: the viability is 74.2% (inactive).
Take `O=C(CCCSc1nc2cccc(F)c2c(=O)n1-c1ccc(F)c(Br)c1)Nc1ccc2c(c1)CCC2`: the viability is 81.7% (inactive).
On the same count and under the same terms, with `Cc1nc2cc(NC(=O)CSc3nc4ccccc4c(=O)n3-c3ccccc3)ccc2s1` the figure was 75.1% (inactive); with `O=C(CSc1nc2ccccc2c(=O)n1-c1ccc(F)c(Cl)c1)Nc1cccc2ccccc12`, 75.5% (inactive).
Same read-out and setting: with `O=C(CCCSc1nc2cccc(F)c2c(=O)n1-c1ccc(F)c(F)c1)Nc1ccc2c(c1)CCC2` the figure was 78% (inactive); with `O=C(CCCCSc1nc2ccccc2c(=O)n1-c1cc(F)c(F)c(F)c1)Nc1ccc2c(c1)CCC2`, 70.2% (inactive).
